Test results: ChEMBL document CHEMBL4330139, “Synthetically modified methoxsalen for enhanced cytotoxicity in light and dark reactions” (Bioorg Med Chem Lett, 2019)
pIC50: −log10 of the molar value.

Legend:
[1] = Dark toxicity against mouse PAM212 cells assessed as cell growth inhibition incubated for 30 mins under dark condition measured after 5 days by coulter counting method; format: cell-based
[2] = Dark toxicity against mouse PAM212 cells assessed as cell growth inhibition incubated for 5 days under dark condition by coulter counting method; format: cell-based
PAM212 = experiment: Phototoxicity against mouse PAM212 cells assessed as cell growth inhibition preincubated for 30 mins followed by 1.28 J/cm2 UV light exposure and measured after 5 days by coulter counting method; format: functional, cell-based; details: PAM212, light or radiation study

Q: With `COc1c2occc2c(NC(=O)c2ccc(N=[N+]=[N-])cc2)c2ccc(=O)oc12` as the compound, how does the IC50 at 30 min [1] read?
A: > 100 µM

Q: And the IC50 at 5 days [2]?
A: > 300 µM

Q: What about the pIC50 (PAM212) of the same compound?
A: 4.48

Q: For `COc1c2occc2c(/N=N/N(C)C)c2ccc(=O)oc12`, which IC50 at 30 min [1] is on record?
A: > 100 µM

Q: What about the IC50 at 5 days [2] of the same compound?
A: 20 µM

Q: What about the pIC50 (PAM212) of the same compound?
A: < 4.00

Q: With `CCN(CC)/N=N/c1c2ccoc2c(OC)c2oc(=O)ccc12` as the compound, how does the IC50 at 30 min [1] read?
A: > 100 µM

Q: And the IC50 at 5 days [2]?
A: 6 µM

Q: And the pIC50 (PAM212)?
A: < 4.00

Q: With `COc1c2occc2c(NC(=O)NCCCl)c2ccc(=O)oc12` as the compound, how does the IC50 at 30 min [1] read?
A: > 100 µM

Q: What about the IC50 at 5 days [2] of the same compound?
A: > 300 µM

Q: And the pIC50 (PAM212)?
A: < 4.00

Q: What does the source list for `CCN(C)/N=N/c1c2ccoc2c(OC)c2oc(=O)ccc12`?
A: IC50 at 30 min [1]: > 100 µM; IC50 at 5 days [2]: 10 µM; pIC50 (PAM212): < 4.15

Q: Which results are given for `CCCCN(C)/N=N/c1c2ccoc2c(OC)c2oc(=O)ccc12`?
A: IC50 at 30 min [1]: > 100 µM; IC50 at 5 days [2]: 7 µM; pIC50 (PAM212): 5.40

Q: Which results are given for `COc1c2occc2c(NC(=O)CCl)c2ccc(=O)oc12`?
A: IC50 at 30 min [1]: 50 µM; IC50 at 5 days [2]: 4 µM; pIC50 (PAM212): 4.40

Q: Which results are given for `COc1c2occc2cc2ccc(=O)oc12` [METHOXSALEN]?
A: IC50 at 30 min [1]: > 100 µM; IC50 at 5 days [2]: > 100 µM; pIC50 (PAM212): 7.00
